# Measured values published in patent publication US20130338228A1, “METHODS FOR FA[…] RECOVERY AFTER A PERIOD OF DISUSE USING BETA-HYDROXY-BETA-METHYLBUTYRATE” (ABBOTT LABORATORIES, priority 2010, published 2013).
# Key:
# Type in all cases: in vivo, Fischer 344× Brown Norway rats
# Bax = assay: Western immunoblot of Bax in hind limb muscles
# Procedure: (§1) Sixty-four aged (34 months of age) Fischer 344× Brown Norway rats are randomly assigned to a hind limb suspended (HS) group or a reloaded (R) group. The rats in each test group receive either: (1) 1 ml Ca-HMB (170 mg/ml distilled water); or (2) 1 ml of distilled water by gavage feeding per day. After one week, thirty-two rats (eight rats from the HS group receiving Ca-HMB; eight rats from the R group receiving Ca-HMB; eight rats from the HS group receiving water; and eight rats from the R group receiving water) are designated as part of the control groups (HS Control Group (16 rats) or R Control Group (16 rats)). […]
# (§2) The remaining thirty-two rats (16 rats in HS Group and 16 rats in R Group) continue to receive either Ca-HMB or water and are subjected to hind limb suspension for 14 days. […] The suspension height is monitored and adjusted to prevent contact between the hind limb and any supportive surface of the cage. […]
# (§3) Approximately seventy-five […] of muscle is homogenized in ice-cold RIPA buffer (1% Triton x-100, 150 mM NaCl, 5 mM EDTA, 10 mM Tris; pH 7.4), containing protease inhibitors (P8340, Sigma-Aldrich, St. Louis, Mo.), and phosphatase inhibitors (P2850; P5726, Sigma-Aldrich). The muscle homogenates are centrifuged at 1000×g for 5 minutes at 4° C., and the protein content of the supernatant is measured (500-0116; BioRad, Hercules, Calif.). […]
# [1] = test system: soleus and plantaris muscles; assay: Muscle wet weight after hind limb suspension and reloading
# Procedure: (§4) Sixty-four aged (34 months of age) Fischer 344× Brown Norway rats are randomly assigned to a hind limb suspended (HS) group or a reloaded (R) group. The rats in each test group receive either: (1) 1 ml Ca-HMB (170 mg/ml distilled water); or (2) 1 ml of distilled water by gavage feeding per day. After one week, thirty-two rats (eight rats from the HS group receiving Ca-HMB; eight rats from the R group receiving Ca-HMB; eight rats from the HS group receiving water; and eight rats from the R group receiving water) are designated as part of the control groups (HS Control Group (16 rats) or R Control Group (16 rats)). The control groups maintain normal mobility throughout the test period, and are allowed to move freely around their cages. Data is collected from the HS Control Group after 14 days from initiation of the study prior to and following sacrifice. Data is collected from the R Control Group after 28 days from initiation of the study prior to and following sacrifice.
# (§5) The remaining thirty-two rats (16 rats in HS Group and 16 rats in R Group) continue to receive either Ca-HMB or water and are subjected to hind limb suspension for 14 days. For the hind limb suspension, tape is applied along the proximal one-third of the tail and then placed through a wire harness that is attached to a fishlike swivel at the top of a specially designed hind limb suspension cage. The suspension allowed the rats 360° of movement around the cage. Sterile gauze is wrapped around the tape and is subsequently covered with a thermoplastic material. […] The suspension height is monitored and adjusted to prevent contact between the hind limb and any supportive surface of the cage. […] The forelimbs maintain contact with a grid floor, which allows the animals to move, groom themselves, and obtain food and water freely.
# (§6) After 14 days of hind limb suspension, the hind limbs are released. The R Group is further allowed normal cage ambulation for an additional 14 days and then data is collected prior to and following sacrifice.
# (§7) Each animal is weighed at the beginning of the experiment, following 14 days of hind limb suspension and after 14 days of reloading. With the animals deeply anesthetized, the soleus and the plantaris muscles are removed from both limbs, then blotted, and weighed. Animals are euthanized following this procedure. A block obtained from the mid-belly of the muscle is embedded in optimal cutting temperature (OCT) compound (Tissue-Tek; Andwin Scientific, Addison, Ill.), snap frozen in liquid nitrogen-cooled isopentane, and stored at −80° C. The remainder of the muscle is snap frozen in liquid nitrogen and stored at −80° C. until needed for subsequent analyses.
# [2] = test system: soleus and plantaris muscle fibers; assay: Muscle fiber cross sectional area (CSA) by planimetry
# Procedure: as §4, §5, §6
# Muscle fiber cross sectional area (CSA) is determined by planimetry from 750-1200 fibers that are obtained from four non-overlapping regions of each tissue cross-section is stained for lamina. Fiber CSA is calculated by the Image J software.
# cleaved caspase-3 = assay: Western immunoblot of cleaved caspase-3 in hind limb muscles
# Procedure: as §1, §2, §3
# [3] = Body weight of aged rats after hind limb suspension and reloading
# Procedure: as §4, §5, §6, §7
# cleaved caspase-9 = assay: Western immunoblot of cleaved caspase-9 in hind limb muscles; settings: plantaris and soleus muscles after both hind limb suspension and reloading, vs water-treated
# Procedure: as §1, §2, §3
# [4] = test system: satellite cells/muscle precursor cells; assay: Activation of satellite cells by BrdU labeling during reloading
# Procedure: as §1, §2
# Activated, proliferated satellite cells/muscle precursor cells were identified by immunofluorescence staining on BrdU and laminin as described previously (Siu 2005). […] The sections were finally stained with 4′,6-diamidino-2-phenylindole (DAPI) and examined under a fluorescence microscope with excitation wavelengths of 330-380 nm for DAPI blue fluorescence, 485-585 nm for Cy3 red fluorescence, and 450-490 nm for fluorescein green fluorescence. […]
# [5] = test system: plantar flexor muscle group; assay: Maximal isometric force measurement after hind limb suspension and reloading
# Procedure: as §4
# The remaining thirty-two rats (16 rats in HS Group and 16 rats in R Group) continue to receive either Ca-HMB or water and are subjected to hind limb suspension for 14 days. For the hind limb suspension, tape is applied along the proximal one-third of the tail and then placed through a wire harness that is attached to a fishlike swivel at the top of a specially designed hind limb suspension cage. The suspension allowed the rats 360° of movement around the cage. […] The suspension height is monitored and adjusted to prevent contact between the hind limb and any supportive surface of the cage. […]
# Force measurements: All force measurements are made while the animals are anesthetized with 98% oxygen and 2% isoflurane gas. […] The maximal isometric force of the plantar flexor muscle group is evaluated by stimulating the tibial nerve using supramaximal square wave pulses that are 4 V, 100 Hz for a duration of 3 seconds using a SD9 stimulator (Grass Medical Instruments, Quincy, Mass.). Maximal force is determined using Labview based software. […]
# Bcl-2 = assay: Western immunoblot of Bcl-2 in hind limb muscles; settings: plantaris and soleus after either hind limb suspension or reloading (both conditions increase Bcl-2 by about 100%)
# Procedure: as §1, §2, §3
# [6] = test system: TUNEL positive myonuclei in plantaris and soleus muscles; assay: Apoptotic myonuclei identified by TUNEL labeling (apoptotic index)
# Procedure: as §4
# The remaining thirty-two rats (16 rats in HS Group and 16 rats in R Group) continue to receive either Ca-HMB or water and are subjected to hind limb suspension for 14 days. For the hind limb suspension, tape is applied along the proximal one-third of the tail and then placed through a wire harness that is attached to a fishlike swivel at the top of a specially designed hind limb suspension cage. […] The suspension height is monitored and adjusted to prevent contact between the hind limb and any supportive surface of the cage. […]
# 10-μm-thick frozen cross sections from soleus and plantaris muscles are mounted on charged microscope slides (Fisher Scientific, Pittsburgh, Pa.). […] The number of TUNEL- and DAPI-positive nuclei that are immediately adjacent to, or beneath, the basal lamina is counted. Data is expressed as an apoptotic index, which is calculated by counting the number of TUNEL-positive nuclei divided by the total number of nuclei (i.e., DAPI-positive nuclei). The apoptotic index is determined from ˜1200 fibers, which are obtained from four non-overlapping regions of each tissue cross section.
# [7] = plantaris and soleus muscles after both hind limb suspension and reloading, vs water-treated
# [8] = HS induced, stated for both HMB and vehicle-treated animals, P<0.001
smiles,measurement,setting,value
"CC(C)(O)CC(=O)O [HMB, beta-hydroxy-beta-methylbutyrate]",Bax protein abundance in control muscles,"Bax; control muscles of ambulatory animals (HS Con and R Con), FIG. 7B",reduces the protein abundance
same,Bax protein abundance,Bax; [7],suppresses the protein abundance
same,decrease in wet weight of the plantaris muscle,[1]; [8],19%
same,decrease in wet weight of the soleus muscle,[1]; [8],15%
same,effect on extent of HS-induced atrophy (muscle wet weight),"[1]; after 14 days of HS, relative to vehicle",did not significantly reduce
same,effect on plantaris muscle weight,[1]; after 14 days of reloading relative to vehicle-treated animals,significantly improved
same,effect against HS-induced loss in the soleus muscle (wet weight),"[1]; after HS, relative to vehicle-treated animals",did not provide protective effect
same,"HS-induced decrease in fiber CSA, plantaris","[2]; after HS, p<0.05 vs vehicle",26.4%
same,"HS-induced decrease in fiber CSA, soleus","[2]; after HS, p<0.05 vs vehicle",32.5%
same,frequency of fibers<1500 μm^2,"[2]; plantaris and soleus, recovered for 14 days following HS, Chi-squared analyses",significantly greater in the plantaris and soleus muscles of vehicle-treated animals as compared to HMB-treated animals
same,effect on fiber CSA after reloading as compared to HS,"[2]; plantaris or soleus muscles, after 14 days of reloading",did not further improve
same,cleaved caspase-3 protein abundance in control muscles,"cleaved caspase-3; control muscles of ambulatory animals (HS Con and R Con), FIG. 9B",reduces the protein abundance
same,cleaved caspase-3 protein abundance,cleaved caspase-3; [7],suppresses the protein abundance
same,body weight lowered by hind limb suspension,"[3]; after 14 days of hind limb suspension, stated for both the HMB and water-treated groups",about 15%
same,decrease in body weight compared to the body weight of control animals,[3]; after 14 days of reloading,4%
same,body weight reduced relative to the first experimental day,[3]; control rats (normal mobility) treated for five weeks,7%
same,body weight reduced relative to the first experimental day,[3]; control rats (normal mobility) treated for three weeks,1.3%
same,cleaved caspase-9 protein abundance,cleaved caspase-9,suppresses the protein abundance
same,number of BrdU positive nuclei relative to vehicle-treated rats,[4]; during recovery from muscle disuse,almost twice the number
same,number of BrdU-positive nuclei to total nuclei,"[4]; soleus, 14 day recovery period, mean+/−SE, p=0.001 vs control",8.1+/−2%
same,reduction of maximal in vivo plantarflexor isometric force by hind limb suspension,[5]; after 14 days of hind limb suspension,23.7%
same,loss in maximal isometric plantarflexor force compared to isometric force in control animals,"[5]; after reloading, P<0.01 vs water-treated rats",27.3%
same,effect on loss of force,[5]; hind limb suspension and reloading,attenuate the loss of force
same,"Bcl-2 protein, difference between HMB and water-treated muscles",Bcl-2,may not be a significant difference
same,"increase of apoptotic index by HS compared to ambulatory control animals, plantaris","[6]; after HS, p<0.05",3.0 fold
same,"increase of apoptotic index by HS compared to ambulatory control animals, soleus","[6]; after HS, p<0.05",1.8 fold
same,effect on TUNEL labeling in myonuclei of reloaded muscles,[6]; reloaded plantaris and soleus muscles,continued to suppress TUNEL labeling
